What is called IC50 is the concentration that inhibits the measured activity by half.

Type in all cases: cell-based, ICR mice
The test system of assay [1] is bone marrow cells (BMM), TRAP-positive multinucleated osteoclasts. As to the kind of experiment: RANKL-induced osteoclast differentiation of BMM, TRAP staining. The settings on record: Mus musculus, 96 h, RANKL and 30 ng/ml M-CSF, 4 days, TRAP-positive cells having 3 or more nuclei, read-out: IC50 (μM), multinucleated osteoclast formation. An excerpt: ICR mice (6˜9 weeks old, male) were sacrificed by cervical dislocation, followed by immersion in 70% ethanol for sterilization. Dissection was made on the tibia skin to remove the muscle attached thereto. The tibia was excised by cutting the distal tibia and dislocating the patella. The tibia were then cut slightly at their opposite ends. A 25-gauge (G) syringe needle was inserted into the bone at one end and α-MEM (Minimum Essential Medium) was infused into the bone through the needle to collect bone marrow cells.
After centrifugation, a cell pellet was suspended in α-MEM and red blood cells in the suspension were removed with two volumes of Gey's solution. After centrifugation, the cell pellet was resuspended in α-MEM supplemented with 10% FBS.
After a primary culture of the bone marrow cells, the bone marrow cells were incubated overnight in 10 ng/ml M-CSF (macrophage colony-stimulating factor) and then for an additional three days in 30 ng/ml M-CSF. After Adhesive cells (BMM) were recovered, ng/ml RANKL and 30 ng/ml M-CSF or ng/ml RANKL, 30 ng/ml M-CSF in combination with various concentrations of the K11, K14, K17, K18, K19, or K22 compound were added to each well plated at a density of 1×10^5 cells/well and each well was incubated for 4 days. The incubated to cells were fixed for 10 min with 10% formalin and then re-fixed for 1 min with ethanol/acetone (1:1(v/v)). The cells were stained for TRAP (tartrate-resistant acid phosphatase). TRAP-positive cells having 3 or more nuclei were evaluated as multinucleated osteoclasts by observation under a microscope, and their IC50 values are given in the following table 1.

In assay [2] the test system is osteoclast-specific marker genes (calcitonin receptor, cathepsin K, αv-integrin, β3-integrin, ATP6v0d2, DC-STAMP). As to the kind of experiment: RT-PCR of osteoclast-specific marker genes. The settings on record: R+K11: 50 ng/ml RANKL following pretreatment with 10 μM K11 for 30 minutes, compared to RANKL; FIG. 3A. How it is done: Total RNA isolation was conducted using Easy-blue (Intron Biochemistry, Inc.). cDNA was synthesized from […] of the total RNA using an oligodT primer and 10 mM dNTP, 1 unit of an RNase inhibitor and 4 units of Scrip reverse transcriptase (Fermentas, Life science) at 42° C. for 60 min, followed by termination by heating at 70° C. for 10 min.
(§1) In FIG. 3, Veh represents a control group treated with DMSO, RANKL represents a group treated with 50 ng/ml RANKL, K11 represents a group treated with 10 μM K11, R+K11 represents a group treated with 50 ng/ml RANKL following pretreatment with 10 μM K11 for 30 minutes, while * represents p<0.05 compared to Veh and ** represents *: p<0.05 compared to RANKL. N.D.=Not Detectable. FIG. 3A is graphs showing analyzed results of reverse transcription polymerase chain reaction (RT-PCR) performed for measurement of expression levels of osteoclast-specific marker genes (calcitonin receptor, cathepsin K, αv-integrin, β3-integrin, ATP6v0d2, DC-STAMP), FIG. 3B is a view of result of pits formed on dentine slices by bone absorption according to treatment with K11 compound and FIG. 3C is a graph showing analyzed results of the experiment results obtained in FIG. 3B. […]

The test system of assay [3] is BMM cells on dentine slices (bone resorption of osteoclasts). Kind of assay: Pit formation assay on dentine slices. The following applies: 50 ng/ml RANKL, 30 ng/ml M-CSF and 10 μM K11, six days, compared to RANKL; FIGS. 3B and 3C. How it is done: BMM cells were cultured for six days on dentine slices in 50 ng/ml RANKL and 30 ng/ml M-CSF, or 50 ng/ml RANKL 30 ng/ml and 10 μM K11 compound. After the cells on surfaces of dentine slice were washed, pits were stained with toluidin blue (J. T. Baker, UK, 1 μg/ml). Pits formed on the dentine slices by bone absorption were observed under a microscope and were analyzed.
as §1

The subject of assay [4] is c-fos. As to the kind of experiment: Western blot analysis of c-fos expression. The settings on record: 200 ng/ml RANKL following pretreatment with 10 μM K11 for 30 minutes; FIG. 5. As for the experimental part: (§2) After BMM cells treated with reagent were incubated for a predetermined period of time, the BMM cell were lysed in a lysis buffer and centrifuged. Following normalization to BSA (bovine serum albumin) standards, protein concentrations were quantitatively analyzed using a protein assay kit (Bio-Rad). Twenty micrograms of the protein was denatured and separated by SDS-PAGE (poly acrylamide gel electrophoresis) and transferred for 1 hour and 45 minutes onto a PVDF membrane in 80 V. Subsequently, the membrane was blocked with PBST (Phosphate Buffered Saline Tween-20) containing 5% skim milk, followed by reaction with anti-NFATc1 (Nuclear factor of activated T-cells cytoplasmic 1, 1:200, Santa Cruz) antibody or anti-c-fos (1:1000, Cell Signaling) antibody as a primary antibody, respectively (1:200 ratio herein indicated means dilution of 200 times). After the membrane was washed five times with TBST and reacted with HRP (horseradish peroxidase)-conjugated secondary antibody, the protein was visualized using ECL Advance (Amersham Co.) and analyzed.
(§3) In FIGS. 4 and 5, veh represents a control group treated with DMSO, RANKL represents a group treated with 200 ng/ml RANKL, R+K11 represents a group treated with 200 ng/ml RANKL following pretreatment with 10 μM K11 for 30 minutes, while * represents p<0.05 compared to Veh and ** represents *: p<0.05 compared to RANKL.
Background: Immunoblotting shows a protein as a band on a membrane.

For assay [5], the system named is NFATc1. Kind of assay: Western blot analysis of NFATc1 expression. The following applies: 200 ng/ml RANKL following pretreatment with 10 μM K11 for 30 minutes; FIG. 4. How it is done: as §2, §3

Consider `COc1cc(C(=O)N(C(C)C)C(C)C)ccc1OCCCCOc1nc2ccccc2s1` [Compound K22, 4-(4-(Benzo[d]thiazol-2-yloxy)butoxy)-N,N-diisopropyl-3-methoxy Benzamide], for which the IC50 in assay [1] was 2.2 µM.

For the compound `COc1ccccc1OCCCCCOc1nc2ccccc2s1` [Compound K17, 2-(5-(2-Methoxyphenoxy)pentyloxy)benzo[d]thiazole], the IC50 in assay [1] was 23.4 µM.

`COc1cc(C(=O)N(C(C)C)C(C)C)ccc1OCCCCCOc1nc2ccccc2s1` [Compound K11, 4-(5-(Benzo[d]thiazol-2-yloxy)pentyloxy)-N,N-diisopropyl-3-methoxybenzamide]: in assay [1], the IC50 came out at 1.56 µM. Further, in assay [2], the “expression levels of osteoclast-specific marker genes” value was “significantly decreased”. In addition, the “number of pits on dentine slices” value in assay [3] is on record as “significant reduction”. In addition, in assay [4], the “RANKL-induced increase in the expression level of c-fos” value is “the effect of RANKL was reduced”. Moreover, in assay [5], the “RANKL-induced increase in the expression level of NFATc1” value is reported as “the effect of RANKL was reduced”.

For the compound `c1ccc(OCCCCOc2nc3ccccc3s2)cc1` [Compound K19, 2-(4-Phenoxybutoxy)benzo[d]thiazole], the IC50 in assay [1] was found to be 17.7 µM.

Consider `Clc1cccc(OCCCCCOc2nc3ccccc3s2)c1` [Compound K14, 2-(5-(3-chlorophenoxy)pentyloxy)benzo[d]thiazole], for which, in assay [1], the IC50 turned out to be 7.77 µM.

As to `Fc1ccccc1OCCCCCOc1nc2ccccc2s1` [Compound K18, 2-(5-(2-Fluorophenoxy)pentyloxy)benzo[d]thiazole], the 50% inhibitory concentration (IC50) in assay [1] turned out to be 18.4 µM.

The values above are taken from patent US8604214B2, “Compounds for alleviation, prevention or treatment of osteoporosis, the preparation thereof and pharmaceutical composition comprising the same” (Ewha University-Industry Collaboration Foundation, priority 2011, dated 2013).
